# Key:
# adenylyl cyclase = assay: LC/MS quantification of cAMP in washed human platelets; format: cell-based; settings: 25 μM, 1 min; platelets pre-treated with 10 μM IBMX; vs DMSO
# Description: Washed human platelets were treated with the specific ligand or vehicle control for 1 min at room temperature, and quenched with an equal volume of ice-cold 2× platelet lysis buffer containing protease and phosphatase inhibitors. Lysed platelet samples were centrifuged at 14,000 g for 7 min at 4° C. to pellet cytoskeleton and the supernatant was stored in −80° C.
# To prepare the sample for LC/MS injection, 200 μL of the supernatant was spiked with 400 pg of adenosine-3′,5′-cyclic-13C5 monophosphate (^13C5-cAMP) (Toronto Research Chemicals, Inc.), an internal standard, and 600 μL of LC/MS grade acetonitrile (Fisher Scientific). The sample was briefly vortexed and centrifuged at 14,000 rpm for 10 min at 4° C. The supernatants were then air dried in a SpeedVac and reconstituted in 200 μL of LC/MS grade water and centrifuged at 10,000 rpm for 5 min at 4° C. and used for LC/MS injection.
# The separation and detection of cAMP was performed on a Waters ACQUITY UPLC system equipped with a Xevo Triple Quadrupole Mass Spectrometer (TQ-S MS/MS). […]
# The mass spectrometer was operated with an ESI source in positive mode. […] Cyclic AMP (cAMP) was quantitated using ^13C5-cAMP as the internal standard. […]
# VASP (serine 157) = assay: VASP phosphorylation in human platelets; format: cell-based; settings: 1 min
# Description: Washed platelets were treated with PUFA or PUFA metabolite (12(S)-HETrE or compound IIc) for one minute, then directly lysed in 5× Laemmeli sample buffer (1.5 M Tris-HCl, pH 6.8, glycerol, 5% β-mercaptoethanol, 10% sodium dodecyl sulfate (SDS), and 1% bromophenol blue). The samples were boiled for five minutes and then run on a 10% SDS-PAGE gel. The levels of total and phospho-VASP (serine 157) were quantified by Western Blot using an Odyssey imaging system (LI-CoR).
# Gαs = assay: [35S]GTPγS binding to immunoprecipitated Gαs, platelet membranes; format: biochemical; settings: human platelet membranes, vs DMSO
# Description: PRP was isolated from whole blood as described above and then incubated with 1 mM aspirin for 1 hour at 37° C. Platelets were pelleted at 2000 g for 10 min in the presence of 10×ACD and apyrase. The pelleted platelets were washed with Tyrode's and centrifuged at 2000×g with 10×ACD for 10 min at room temperature. The platelets were flash frozen with liquid nitrogen and then resuspended in cold detergent-free TME buffer (50 mM Tris-HCl, pH 7.5, 20 mM MgCl2, 2 mM EDTA, and 100 mM NaCl) with 1 μM GDP and protease and phosphatase inhibitors to lyse the platelets. The lysed platelets were centrifuged at 1500 g at 4° C. for 5 min. The supernatant was collected and centrifuged at 100,000×g for 30 min at 4° C. The pelleted membranes were resuspended in TME buffer with 1 μM GDP and stored at −80° C. prior to use. Fatty acid metabolites, agonists, or DMSO and [^35S]GTPγS (10 nM) were added to platelet membranes (60 μg/reaction) on ice, and the tubes were immediately transferred to a 30° C. water bath shaker for 20 min. The reaction was terminated by the addition of ice-cold IP buffer (50 mM Tris-HCl, pH 7.5, 20 mM MgCl2, 150 mM NaCl, 0.5% Nonidet P-40, 0.33% aprotinin, 0.1 mM GDP, and 0.1 mM GTP). The samples were pre-cleared with Protein A agarose beads and normal rabbit IgG for 30 min on a nutator at 4° C. and then aliquoted equally into two tubes containing either normal rabbit IgG or a Gs antibody that had been conjugated to Protein A agarose beads. The samples were incubated on a nutator for 1 hr at 4° C. and washed 4 times with IP buffer and 1 time in TME buffer. The samples were boiled in 0.5% SDS for 30 sec, and the supernatants were collected following brief centrifugation. The supernatants were analyzed in 8 mL of scintillation fluid. The background counts for the normal rabbit IgG (50-200 cpm) for each sample were subtracted from the anti-Gs immunoprecipitated samples prior to analyzing the data.
# [1] = system: washed platelets from WT or 12-LOX−/− mice; assay: Platelet aggregation, washed murine platelets (lumi-aggregometer); format: cell-based, mouse; settings: 10 min
# Description: The 12-LOX null C57BL/6 (12-LOX^−/−) mice were generated using homozygous breeding pairs and wild-type (WT) C57BL/6 ([…]) mice were purchased (Jackson Laboratory). […] Mouse blood was diluted with equal volumes of Tyrode's buffer (10 mM HEPES, 11.9 mM sodium bicarbonate, 127.2 mM sodium chloride, 5 mM potassium chloride, 0.4 mM sodium phosphate monobasic, 1 mM magnesium chloride, and 5 mM D-glucose) and centrifuged at 200×g. Platelet-rich-plasma (PRP) was transferred to a tube containing 10× acid citrate dextrose solution (ACD) (2.5% sodium citrate, 1.5% citric acid, and 2% D-glucose) and apyrase (0.02 U/mL), and centrifuged at 2000×g. Platelet count was adjusted to 3×10^8 platelets/mL with Tyrode's buffer for all studies.
# A lumi-aggregometer (Chrono-log model 700D) was used to measure platelet aggregation under stirring conditions (1100 rpm) at 37° C. Prior to agonist stimulation platelets were incubated with a preselected PUFA or oxylipin for 10 minutes.
# Rap1 = Rap1 activation in washed platelets (Rap1-GTP pull-down, Western blot); format: cell-based, mouse; settings: 10 μM DGLA, PAR4-AP 50, 100, 200 μM
# Description: Following 1 minute of stimulation platelets were lysed with 2× platelet lysis buffer (100 mM Tris HCl, pH 7.4, 150 mM NaCl, 2% IGEPAL, 1% sodium deoxycholate, and 0.05% SDS) containing protease and phosphatase inhibitors. The cytoskeleton was pelleted by centrifugation at 14000×g for 7 minutes at 4° C. Active Rap1 was selectively captured from the supernatant by incubating GST-tagged Rap1 binding domain of RalGDS conjugated to glutathione sepharose beads for one hour on a nutator at 4° C. The beads were then washed 5 times with IP buffer and resuspended in 2× Laemmeli reducing buffer (62.5 mM Tris-HCl, pH 6.8, 2% SDS, 25% glycerol, 0.01% bromophenol blue, 5% β-mercaptoethanol). The samples were boiled for 10 minutes and then loaded onto a 10% SDS-polyacrylamide gel electrophoresis (PAGE) gel. Western blots were performed using a Rap1 antibody and quantified with a LI-COR imager.
# [2] = system: thrombus formation (platelet and fibrin) in cremaster arterioles; assay: Laser-induced cremaster arteriole thrombosis model; format: in vivo, mouse; settings: vs vehicle
# Description: Wild type (WT) or 12-LOX^−/− mice (12 weeks of age) were anesthetized by intraperitoneal injection of ketamine/xylazine (100 mg/kg) prior to the exposure of the cremaster muscle arterioles under a dissecting microscope with constant perfusion of preheated bicarbonate-buffered saline (Reheman et al., J Thromb Haemost 3:875-883, 2005; Reheman et al., Blood 113:1809-1817, 2009; Wang et al., J Clin Invest 124:4281-4293, 2014). Anti-platelet (DyLight 488 anti-GPIb, 1 μg/g) and anti-fibrin (Alexa Fluor 647, 0.3 μg/g) antibodies were administered via jugular vein catheter prior to intravital microscopy. DGLA (50 mg/kg) or DMSO (vehicle control) were dissolved in a formulation of 5% DMSO and 45% PEG300 in sterile 1×PBS and then intravenously injected into mice 10 minutes prior to induction of thrombosis. 12(S)-HETrE (6 mg/kg) or equal volume of DMSO (vehicle control) was also intravenously injected into mice 10 minutes prior to induction of thrombosis. Multiple independent thrombi were induced in the arterioles (30-50 μm diameter) in each mouse by a laser ablation system (Ablate! photoablation system; Intelligent Imaging Innovations, Denver, Colo., USA). Images of thrombus formation were acquired in real-time under 63× water-immersion objective with a Zeiss Axio Examiner Z1 fluorescent microscope equipped with solid laser launch system (LaserStack; Intelligent Imaging Innovations) and high-speed sCMOS camera. All captured images were analyzed on Slidebook (Intelligent Imaging Innovations Inc., Denver, Colo., USA).
# platelets = settings: cited from earlier work
# washed human platelets = assay: Human platelet aggregation after pre-treatment with adenylyl cyclase inhibitor SQ 22536; format: cell-based; settings: platelets pre-treated with SQ 22536 (25 μM, 20 min); iloprost 0.2 to 0.4 nM, 1 min; EC80 PAR4-AP
# Description: Blood from healthy donors was collected into vacutainers containing buffered sodium citrate, and platelets were isolated by serial centrifugation as described above for mouse platelets. The platelets were resuspended in Tyrode's buffer at 3×10^8 platelets/mL, unless otherwise specified.
# A lumi-aggregometer (Chrono-log model 700D) was used to measure platelet aggregation under stirring conditions (1100 rpm) at 37° C. […]
# Tail bleeding assay = format: in vivo, mouse; settings: heparin-treated mice; data not shown
# Description: Mice were anesthetized with ketamine/xyzaline and placed on a heating pad in prone position, the tip of the tail (5 mm) was excised with a sterile scalpel, and the tails were immediately immersed into isotonic saline solution (0.9%) warmed to 37° C. Bleeding time was assessed until cessation of blood flow from the tail for 1 minute.
# [3] = 12-LOX−/− mouse platelets, 10 μM PUFA, EC80 PAR4-AP (200 μM) or collagen (2 or 5 μg/mL), vs vehicle
# [4] = WT mouse platelets, 10 μM PUFA, EC80 PAR4-AP (100 μM) or collagen (5 μg/mL), vs DMSO
# [5] = WT mice, 50 mg/kg i.v. 10 min before laser injury
# [6] = 12-LOX−/− mouse platelets, 25 μM 12-LOX oxylipin, EC80 PAR4-AP (200 μM) or collagen (2 or 5 μg/mL), vs vehicle
# [7] = WT mouse platelets, 25 μM 12-LOX oxylipin, EC80 PAR4-AP (100 μM) or collagen (5 μg/mL), vs vehicle
compound,measurement,setting,value
CCCCC/C=C\CC(/C=C/C=C\CCCCCCC(=O)O)OO (centres unmarked) [Compound 12-HpETrE],level of intracellular cAMP,adenylyl cyclase,significant increase in the level of intracellular cAMP
same,VASP phosphorylation (S157),"VASP (serine 157); 25 μM, vs DMSO",enhanced VASP phosphorylation
same,[35S]GTPγS binding to immunoprecipitated Gαs,Gαs; 25 μM,significant increase in [^35S]GTPγS binding
"CCCCC/C=C\C/C=C\C/C=C\CCCCCCC(=O)O [DGLA, Dihomo-γ-linolenic acid]",platelet aggregation,[1]; [3],failed to inhibit platelet aggregation
same,platelet aggregation,[1]; [4],significant inhibition of aggregation
same,Rap1 activation (Rap1-GTP),Rap1; 12-LOX−/− mouse platelets,unable to inhibit Rap1 activation
same,Rap1 activation (Rap1-GTP),Rap1; WT mouse platelets,inhibited Rap1 activation at all concentrations of PAR4-AP tested
same,fibrin accumulation in thrombi,"[2]; 12-LOX−/− mice, 50 mg/kg i.v.",did not differ
same,platelet accumulation in thrombi,"[2]; 12-LOX−/− mice, 50 mg/kg i.v.",did not differ
same,fibrin accumulation at the site of injury,[2]; [5],but not fibrin accumulation
same,platelet accumulation at the site of injury,[2]; [5],significant reduction in platelet
same,VASP phosphorylation (S157),"VASP (serine 157); DGLA 10 μM, vs DMSO",enhanced VASP phosphorylation
same,platelet aggregation ex vivo,platelets; literature (Farrow and Willis 1975; Kernoff 1977; Willis 1974),inhibit platelet aggregation ex vivo
same,ex vivo aggregation of platelets after dosing,"platelets; platelets from humans, baboons, rabbits and rats that received daily oral doses",significant reduction in ex vivo aggregation
"CCCCC/C=C\C/C=C\C/C=C\CCCCCSc1n[nH]c(=O)[nH]1 [Compound IIc, 5-(((6Z,9Z,12Z)-octadeca-6,9,12-trien-1-yl)thio)-2,4-dihydro-3H-1,2,4-triazol-3-one]",VASP phosphorylation (S157),"VASP (serine 157); compound IIc, concentrations not given",dose-dependent phosphorylation of VASP
"CCCCC/C=C\CC(O)/C=C/C=C\C/C=C\CCCC(=O)O (centres unmarked) [Compound 12-HETE, 12-hydroxy-5Z,8Z,10E,14Z-eicosatetraenoic]",platelet aggregation,[1]; [6],no decrease in collagen- or PAR4-AP-mediated platelet aggregation
same,platelet aggregation,[1]; [7],no decrease in collagen- or PAR4-AP-mediated platelet aggregation
CC#CCC(C)[C@H](O)/C=C/[C@@H]1[C@H]2C/C(=C/CCCC(=O)O)C[C@H]2C[C@H]1O (some centres unmarked) [iloprost],PAR4-AP-mediated platelet aggregation,washed human platelets,unable to inhibit PAR4-AP-mediated platelet aggregation
same,[35S]GTPγS binding to immunoprecipitated Gαs,Gαs; iloprost 10 μM,significant increase in [^35S]GTPγS binding
heparin,bleeding time,Tail bleeding assay,severe bleeding diathesis
"CC/C=C\C/C=C\CC(O)/C=C/C=C\C/C=C\CCCC(=O)O (centres unmarked) [Compound 12-HEPE, 12-hydroxy-5Z, 8Z, 10E, 14Z, 17Z-eicosapentaenoic acid]",platelet aggregation,[1]; [6],did not inhibit collagen- or PAR4-AP-induced aggregation
same,platelet aggregation,[1]; [7],did not inhibit collagen- or PAR4-AP-induced aggregation
"CCCCC/C=C\C/C=C\CCCCCCCC(=O)O [LA, linoleic acid]",platelet aggregation,[1]; [3],no inhibitory effect
same,platelet aggregation,[1]; [4],no inhibitory effect
CCCCC/C=C\C/C=C\C/C=C\C/C=C\CCCC(=O)O [AA],platelet aggregation,[1]; [3],no inhibitory effect
same,platelet aggregation,[1]; [4],no inhibitory effect
